US10202378B2, “Therapeutic compounds and uses thereof” (GENENTECH, INC., priority 2015, dated 2019)

Columns and labels:
[1] = molecular target: TAF1-BD2 (Homo sapiens, UniProt P21675); experiment: TAF1-BD2 TR-FRET Binding Assay; settings: read-out: TAF1-BD2 HTRF IC50
Protocol: IC50 Measurements for Inhibitors Using TAF1-BD2 TR-FRET Binding Assay
His/Flag epitope tagged TAF1-BD21504-1635 was cloned, expressed, and purified to homogeneity. TAF1-BD2 binding and inhibition was assessed by monitoring the engagement of a biotinylated small molecule compound 1000 with the target using the TR-FRET assay technology (Perkin-Elmer). Specifically, in a 384 well ProxiPlate, TAF1-BD2 (0.012 uM final) in 50 mM HEPES (pH 7.5; final), 50 mM NaCl (final), 1 mM TCEP (final), 0.1 mg/mL BSA (final), and 0.069 mM Brij-35 (final) was added either in the presence of DMSO (final 0.2% DMSO) or compound dilution series in DMSO. After a 10 minute incubation at room temperature, biotin-ligand (0.04 uM final) was added. After 10 minutes incubation at room temperature, a mixture Eu-W1024 Anti-6×His antibody (Perkin Elmer AD0110) and SureLight™ Streptavidin-Allophycocyanin (SA-APC, Perkin Elmer CR130-100) were added to a final concentration of 0.2 nM antibody and 0.025 uM SA-APC, respectively. After forty minutes of equilibration at room temperature, the plates were read on an Envision instrument and IC50s calculated using a four parameter logistic model (XLFIT).

[2] = molecular target: TAF1-BD1 (Homo sapiens, UniProt P21675); experiment: TAF1-BD1 TR-FRET Binding Assay; settings: read-out: TAF1-BD1 HTRF IC50
Protocol: IC50 Measurements for Inhibitors Using TAF1-BD1 TR-FRET Binding Assay
His/Flag epitope tagged TAF1-BD11381-1497 was cloned, expressed, and purified to homogeneity. TAF1-BD binding and inhibition was assessed by monitoring the engagement of a biotinylated small molecule compound 1000 with the target using the TR-FRET assay technology (Perkin-Elmer). Specifically, in a 384 well ProxiPlate, TAF1-BDI (0.08 uM final) in 50 mM HEPES (pH 7.5; final), 50 mM NaCl (final), 1 mM TCEP (final), 0.1 mg/mL BSA (final), and 0.069 mM Brij-35 (final) was added either in the presence of DMSO (final 0.2% DMSO) or compound dilution series in DMSO. After a 10 minute incubation at room temperature, biotin-ligand (0.08 uM final) was added. After 10 minutes incubation at room temperature, a mixture Eu-W1024 Anti-6×His antibody (Perkin Elmer ADO 110) and SureLight™ Streptavidin-Allophycocyanin (SA-APC, Perkin Elmer CR130-100) were added to final concentrations of 0.2 nM antibody and 0.05 uM SA-APC, respectively. After forty minutes of equilibration at room temperature, the plates were read on an Envision instrument and IC50s calculated using a four parameter logistic model (XLFIT).

SMILES | IC50 [1] [nM] | IC50 [2] [nM]
CCOC(=O)c1c(C)[nH]c2c(=O)n(C)cc(C#CC(C)(O)c3cccc(F)c3)c12 (stereo not shown) [Example 33, ethyl 4-[3-(3-fluorophenyl)-3-hydroxy-but-1-ynyl]-2,6-dimethyl-7-oxo-1H-pyrrolo[2,3-c]pyridine-3-carboxylate] | 60 | 218
CCOC(=O)c1c(C)[nH]c2c(=O)n(C)cc(C#CC(C)(O)CC#N)c12 (stereo not shown) [Example 35, ethyl 4-(4-cyano-3-hydroxy-3-methyl-but-1-ynyl)-2,6-dimethyl-7-oxo-1H-pyrrolo[2,3-c]pyridine-3-carboxylate] | 100 | 139
CCOC(=O)c1c(C)[nH]c2c(=O)n(C)cc(C#CC(C)(C)C(=O)N(C)C)c12 [Example 36, ethyl 4-[4-(dimethylamino)-3,3-dimethyl-4-oxo-but-1-ynyl]-2,6-dimethyl-7-oxo-1H-pyrrolo[2,3-c]pyridine-3-carboxylate] | 375 | 1310
CCOC(=O)c1c(C)[nH]c2c(=O)n(C)cc(C#CC(C)(C)C(N)=O)c12 [Example 37, ethyl 4-(4-amino-3,3-dimethyl-4-oxo-but-1-ynyl)-2,6-dimethyl-7-oxo-1H-pyrrolo[2,3-c]pyridine-3-carboxylate] | 221 | 382
CCOC(=O)c1c(C)[nH]c2c(=O)n(C)cc(C#CC(O)(c3cccc(N(C)C)c3)C(F)(F)F)c12 (stereo not shown) [Example 39, ethyl 4-[3-[3-(dimethylamino)phenyl]-4,4,4-trifluoro-3-hydroxy-but-1-ynyl]-2,6-dimethyl-7-oxo-1H-pyrrolo[2,3-c]pyridine-3-carboxylate] | 76.9 | 525
CCOC(=O)c1c(C)[nH]c2c(=O)n(C)cc(C#CC(O)(c3cccc(C#N)c3)C(F)(F)F)c12 (stereo not shown) [Example 40, ethyl 4-(3-(3-cyanophenyl)-4,4,4-trifluoro-3-hydroxybut-1-yn-1-yl)-2,6-dimethyl-7-oxo-6,7-dihydro-1H-pyrrolo[2,3-c]pyridine-3-carboxylate] | 69.2 | 355
CCOC(=O)c1c(C)[nH]c2c(=O)n(C)cc(C#CC(O)(c3cccc(-c4cn[nH]c4)c3)C(F)(F)F)c12 (stereo not shown) [Example 41, ethyl 2,6-dimethyl-7-oxo-4-[4,4,4-trifluoro-3-hydroxy-3-[3-(1H-pyrazol-4-yl)phenyl]but-1-ynyl]-1H-pyrrolo[2,3-c]pyridine-3-carboxylate] | 21.5 | 171
CCOC(=O)c1c(C)[nH]c2c(=O)n(C)cc(C#CC(O)(c3ccn(C)n3)C(F)(F)F)c12 (stereo not shown) [Example 42, ethyl 2,6-dimethyl-7-oxo-4-[4,4,4-trifluoro-3-hydroxy-3-(1-methylpyrazol-3-yl)but-1-ynyl]-1H-pyrrolo[2,3-c]pyridine-3-carboxylate] | 96.9 | 657
CCOC(=O)c1c(C)[nH]c2c(=O)n(C)cc(C#CC(O)(c3cccc(CO)c3)C(F)(F)F)c12 (stereo not shown) [Example 43, ethyl 2,6-dimethyl-7-oxo-4-[4,4,4-trifluoro-3-hydroxy-3-[3-(hydroxymethyl)phenyl]but-1-ynyl]-1H-pyrrolo[2,3-c]pyridine-3-carboxylate] | 35.5 | 257
CCOC(=O)c1c(C)[nH]c2c(=O)n(C)cc(C#CC(O)(c3cccc(-c4cc[nH]n4)c3)C(F)(F)F)c12 (stereo not shown) [Example 44, ethyl 2,6-dimethyl-7-oxo-4-[4,4,4-trifluoro-3-hydroxy-3-[3-(1H-pyrazol-3-yl)phenyl]but-1-ynyl]-1H-pyrrolo[2,3-c]pyridine-3-carboxylate] | 17 | 226
CCOC(=O)c1c(C)[nH]c2c(=O)n(C)cc(C#CC(O)(C3CC3)C(F)(F)F)c12 (stereo not shown) [Example 45, ethyl 4-(3-cyclopropyl-4,4,4-trifluoro-3-hydroxy-but-1-ynyl)-2,6-dimethyl-7-oxo-1H-pyrrolo[2,3-c]pyridine-3-carboxylate] | 74.7 | 271
C=CCCn1cc(C#CC(C)(O)C2CC2)c2c(C(=O)OCC)c(C)[nH]c2c1=O (stereo not shown) [Example 46, ethyl 6-but-3-enyl-4-(3-cyclopropyl-3-hydroxy-but-1-ynyl)-2-methyl-7-oxo-1H-pyrrolo[2,3-c]pyridine-3-carboxylate] | 133 | 2230
C=CCCn1cc(C#CC(C)(C)CO)c2c(C(=O)OCC)c(C)[nH]c2c1=O [Example 47, ethyl 6-but-3-enyl-4-(4-hydroxy-3,3-dimethyl-but-1-ynyl)-2-methyl-7-oxo-1H-pyrrolo[2,3-c]pyridine-3-carboxylate] | 368 | 4900
C=CCCn1cc(C#CC(C)(C)C(N)=O)c2c(C(=O)OCC)c(C)[nH]c2c1=O [Example 48, ethyl 4-(4-amino-3,3-dimethyl-4-oxo-but-1-ynyl)-6-but-3-enyl-2-methyl-7-oxo-1H-pyrrolo[2,3-c]pyridine-3-carboxylate] | 312 | 1280
C=CCCn1cc(C#CC(C)(C)O)c2c(C(=O)OCC)c(C)[nH]c2c1=O [Example 49, ethyl 6-but-3-enyl-4-(3-hydroxy-3-methyl-but-1-ynyl)-2-methyl-7-oxo-1H-pyrrolo[2,3-c]pyridine-3-carboxylate] | 116 | 2850
CCOC(=O)c1c(C)[nH]c2c(=O)n(CC)cc(C#CC(C)(C)O)c12 [Example 50, ethyl 6-ethyl-4-(3-hydroxy-3-methyl-but-1-ynyl)-2-methyl-7-oxo-1H-pyrrolo[2,3-c]pyridine-3-carboxylate] | 450 | 9870
C=CCn1cc(C#CC(C)(C)O)c2c(C(=O)OCC)c(C)[nH]c2c1=O [Example 51, ethyl 6-allyl-4-(3-hydroxy-3-methyl-but-1-ynyl)-2-methyl-7-oxo-1H-pyrrolo[2,3-c]pyridine-3-carboxylate] | 227 | 7200
CCOC(=O)c1c[nH]c2c(=O)n(C)cc(C#CC(C)(C)O)c12 [Example 53, ethyl 4-(3-hydroxy-3-methyl-but-1-ynyl)-6-methyl-7-oxo-1H-pyrrolo[2,3-c]pyridine-3-carboxylate] | 95.2 | 859
Cc1cc([C@](C)(O)C#Cc2cn(C)c(=O)c3[nH]cc(C(=O)OCC(C)C)c23)no1 [Example 54, isobutyl 4-[(3R)-3-hydroxy-3-(5-methylisoxazol-3-yl)but-1-ynyl]-6-methyl-7-oxo-1H-pyrrolo[2,3-c]pyridine-3-carboxylate] | 122 | 179
CCOC(=O)c1c(C)[nH]c2c(=O)n(C)cc(C#Cc3ccccc3)c12 [Example 55, ethyl 2,6-dimethyl-7-oxo-4-(2-phenylethynyl)-1H-pyrrolo[2,3-c]pyridine-3-carboxylate] | 74 | 457
CCOC(=O)c1c(C)[nH]c2c(=O)n(C)cc(C#Cc3cncn3C)c12 [Example 56, ethyl 2,6-dimethyl-4-[2-(3-methylimidazol-4-yl)ethynyl]-7-oxo-1H-pyrrolo[2,3-c]pyridine-3-carboxylate] | 129 | 337
CCOC(=O)c1c(C)[nH]c2c(=O)n(C)cc(C#Cc3ccccc3OC(F)(F)F)c12 [Example 57, ethyl 2,6-dimethyl-7-oxo-4-[2-[2-(trifluoromethoxy)phenyl]ethynyl]-1H-pyrrolo[2,3-c]pyridine-3-carboxylate] | 59.6 | > 20000
CCOC(=O)c1c(C)[nH]c2c(=O)n(C)cc(C#Cc3ccc(OC)cc3)c12 [Example 58, ethyl 4-[2-(4-methoxyphenyl)ethynyl]-2,6-dimethyl-7-oxo-1H-pyrrolo[2,3-c]pyridine-3-carboxylate] | 38.4 | 315
CCOC(=O)c1c(C)[nH]c2c(=O)n(C)cc(C#Cc3ccccc3F)c12 [Example 59, ethyl 4-[2-(2-fluorophenyl)ethynyl]-2,6-dimethyl-7-oxo-1H-pyrrolo[2,3-c]pyridine-3-carboxylate] | 56.2 | > 2220
CCOC(=O)c1c(C)[nH]c2c(=O)n(C)cc(C#Cc3cccc(N)c3)c12 [Example 60, ethyl 4-[2-(3-aminophenyl)ethynyl]-2,6-dimethyl-7-oxo-1H-pyrrolo[2,3-c]pyridine-3-carboxylate] | 38.1 | 120
CCOC(=O)c1c(C)[nH]c2c(=O)n(C)cc(C#Cc3cccnc3)c12 [Example 61, ethyl 2,6-dimethyl-7-oxo-4-[2-(3-pyridyl)ethynyl]-1H-pyrrolo[2,3-c]pyridine-3-carboxylate] | 47.7 | 292
